Results taken from the supplement of paper PMC11061612.

Experiments:
COLO-679 (Melanoma) = assay: Bliss excess, mean over the matrix (fraction); higher = more synergy
In short: (§1)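 Cell lines in DMEM/F12 or RPMI with 10% FBS were plated in 1536-well plates, held 24 hours at 37°C, 5% CO2, then given two-drug dose matrices for 72 hours (DMSO typically 0.2%). Viability was read by CellTiter-Glo 2.0 luminescence and scaled as inhibition from 0 (vehicle wells) to 1 (blank wells). Combination Emax is the second-highest inhibition in the matrix; Bliss excess is observed combination effect minus expected EA + EB − EA·EB, EA and EB being single-agent effects.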

[1] = system: Ca-Ski (Cervical Carcinoma); assay: as above
In short: as §1

[2] = system: HAL-01 (B-Lymphoblastic Leukemia); assay: as above
In short: as §1

[3] = system: MV-4-11 (Acute Myeloid Leukemia); assay: as above
In short: as §1

SK-N-AS (Neuroblastoma) [4] = assay: as above
In short: as §1

[5] = system: A4-Fuk (B-Lymphoblastic Leukemia); assay: combination Emax (second highest fraction inhibited in the dose matrix, 72 h); higher = more inhibition; extreme values may be limits of the assay
In short: as §1

[6] = system: COLO-668 (Small Cell Lung Carcinoma); assay: as above
In short: as §1

[7] = system: EFO-21 (Ovarian Carcinoma); assay: as above
In short: as §1

[8] = system: HAL-01 (B-Lymphoblastic Leukemia); assay: as above
In short: as §1

[9] = system: KGN (Other Solid Carcinomas); assay: as above
In short: as §1

[10] = system: KMRC-1 (Kidney Carcinoma); assay: as above
In short: as §1

[11] = system: MV-4-11 (Acute Myeloid Leukemia); assay: as above
In short: as §1

[12] = system: Mo-T (Other Blood Carcinomas); assay: as above
In short: as §1

[13] = system: NCI-H1993 (Lung Adenocarcinoma); assay: as above
In short: as §1

[14] = system: NCI-H522 (Lung Adenocarcinoma); assay: as above
In short: as §1

[15] = system: OE33 (Esophageal Adenocarcinoma); assay: as above
In short: as §1

SK-N-AS (Neuroblastoma) [16] = assay: as above
In short: as §1

[17] = system: SKN (Other Solid Carcinomas); assay: as above
In short: as §1

[18] = system: SNU-387 (Hepatocellular Carcinoma); assay: as above
In short: as §1

[19] = system: SW982 (Other Solid Carcinomas); assay: as above
In short: as §1
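Wherever Bliss excess, mean over the matrix is given: after 72 h of two-drug dosing.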

| SMILES | Bliss excess (COLO-679 (Melanoma)) | Bliss excess [1] | Bliss excess [2] | Bliss excess [3] | Bliss excess (SK-N-AS (Neuroblastoma) [4]) | combination Emax [5] | combination Emax [6] | combination Emax [7] | combination Emax [8] | combination Emax [9] | combination Emax [10] | combination Emax [11] | combination Emax [12] | combination Emax [13] | combination Emax [14] | combination Emax [15] | combination Emax (SK-N-AS (Neuroblastoma) [16]) | combination Emax [17] | combination Emax [18] | combination Emax [19] |
| --- | --- | --- | --- | --- | --- | --- | --- | --- | --- | --- | --- | --- | --- | --- | --- | --- | --- | --- | --- | --- |
| CN(CCO)CC[C@H](CSc1ccccc1)Nc1ccc(S(=O)(=O)NC(=O)c2ccc(N3CCC([C@@H](O)c4ccccc4-c4ccc(Cl)cc4)CC3)cc2)cc1S(=O)(=O)C(F)(F)F [AZD4320] + C[C@@H](Nc1cc(F)cc(F)c1)c1cc(C(=O)N(C)C)cc2c(=O)cc(N3CCOCC3)oc12 [AZD8186] (first compound max 1 µM, 7x7, partner max 3 µM) | -0.0469 | 0.0605 | 0.0337 | 0.0114 | 0.0214 | 0.373 | 0.977 | 0.381 | 0.935 | 0.493 | 0.771 | 1 | 0.989 | 0.874 | 0.213 | 0.229 | 0.406 | 0.634 | 0.419 | 0.928 |
| CN(CCO)CC[C@H](CSc1ccccc1)Nc1ccc(S(=O)(=O)NC(=O)c2ccc(N3CCC([C@@H](O)c4ccccc4-c4ccc(Cl)cc4)CC3)cc2)cc1S(=O)(=O)C(F)(F)F [AZD4320] + CC(=O)O[C@H]1C(=O)[C@@]2(C)[C@H]([C@H](OC(=O)c3ccccc3)[C@]3(O)C[C@H](OC(=O)[C@H](O)[C@@H](NC(=O)c4ccccc4)c4ccccc4)C(C)=C1C3(C)C)[C@]1(OC(C)=O)CO[C@@H]1C[C@@H]2O [Paclitaxel] (first compound max 1 µM, 7x7, partner max 3 µM) | -0.0012 | 0.114 | 0.0634 | 0.0055 | 0.0584 | 0.97 | 0.998 | 0.714 | 0.999 | 0.99 | 0.733 | 1 | 1 | 0.984 | 0.882 | 0.678 | 0.884 | 0.978 | 1 | 1 |
| C[C@@H](c1ccc2nccn2c1)n1nnc2ncc(-c3cnn(C)c3)nc21 [Savolitinib] + CC1(C)CCC(CN2CCN(c3ccc(C(=O)NS(=O)(=O)c4ccc(NCC5CCOCC5)c([N+](=O)[O-])c4)c(Oc4cnc5[nH]ccc5c4)c3)CC2)=C(c2ccc(Cl)cc2)C1 [Venetoclax] (first compound max 1 µM, 7x7, partner max 1 µM) | -0.0676 | -0.0475 | -0.0387 | 0.0246 | -0.0568 | 0.199 | 0.295 | 0.212 | 0.703 | 0.233 | 0.141 | 1 | 0.114 | 0.754 | 0.111 | 0.301 | 0.12 | 0.169 | 0.244 | 0.128 |
| COc1cc2c(cc1OCCCCCOc1cc3c(cc1OC)C(=O)N1C=C(C)C[C@H]1C=N3)N=C[C@@H]1CC(C)=CN1C2=O [SG3199] + O=C(c1cc(Cc2n[nH]c(=O)c3ccccc23)ccc1F)N1CCN(C(=O)C2CC2)CC1 [Olaparib] (first compound max 0.001 µM, 7x7, partner max 10 µM) | -0.0285 | -0.0425 | 0.0067 | 0.0066 | -0.0176 | 0.157 | 0.163 | 0.176 | 0.215 | 0.475 | 0.0927 | 0.402 | 0.322 | 0.0845 | 0.144 | 0.0504 | 0.0679 | 0.0757 | 0.104 | 0.43 |
| N#Cc1cnc(Nc2cc(NC[C@H]3CNCCO3)c(C(F)(F)F)cn2)cn1 [SRA737] + Nc1ccn([C@@H]2O[C@H](CO)[C@@H](O)C2(F)F)c(=O)n1 [Gemcitabine] (first compound max 10 µM, 7x7, partner max 0.3 µM) | -0.0808 | 0.0666 | 0.0046 | -0.0314 | -0.0283 | 0.976 | 0.84 | 0.585 | 1 | 0.947 | 0.733 | 1 | 0.737 | 0.939 | 0.855 | 0.678 | 0.712 | 0.729 | 0.663 | 0.905 |
| Cc1nc(Nc2ncc(C(=O)Nc3c(C)cccc3Cl)s2)cc(N2CCN(CCO)CC2)n1 [Dasatinib] + CC(=O)Nc1cccc(-n2c(=O)n(C3CC3)c(=O)c3c(Nc4ccc(I)cc4F)n(C)c(=O)c(C)c32)c1 [Trametinib] (first compound max 2 µM, 7x7, partner max 1 µM) | -0.137 | 0.0639 | 0.0436 | -0.128 | 0.0361 | 0.848 | 0.458 | 0.479 | 0.526 | 0.8 | 0.739 | 0.791 | 0.137 | 0.69 | 0.251 | 0.641 | 0.558 | 0.683 | 0.511 | 0.936 |
| Cc1cc2ncnn2cc1Nc1ncc2c(n1)n(C1CCOCC1)c(=O)n2C [AZD7648] + C=CCn1c(=O)c2cnc(Nc3ccc(N4CCN(C)CC4)cc3)nc2n1-c1cccc(C(C)(C)O)n1 [AZD1775] (first compound max 10 µM, partner max 1 µM) | -0.0446 | -0.0255 | 0.183 | 0.053 | 0.0212 | 0.861 | 0.568 | 0.511 | 0.914 | 0.833 | 0.307 | 0.954 | 0.52 | 0.635 | 0.373 | 0.537 | 0.949 | 0.38 | 0.383 | 0.825 |
| N#Cc1cnc(Nc2cc(NC[C@H]3CNCCO3)c(C(F)(F)F)cn2)cn1 [SRA737] + C=CCn1c(=O)c2cnc(Nc3ccc(N4CCN(C)CC4)cc3)nc2n1-c1cccc(C(C)(C)O)n1 [AZD1775] (first compound max 10 µM, partner max 1 µM) | -0.107 | 0.117 | 0.0645 | 0.0409 | 0.0512 | 0.959 | 0.748 | 0.431 | 1 | 0.812 | 0.54 | 0.931 | 0.565 | 0.88 | 0.402 | 0.765 | 0.811 | 0.518 | 0.465 | 0.759 |
| Cc1cc2ncnn2cc1Nc1ncc2c(n1)n(C1CCOCC1)c(=O)n2C [AZD7648] + CN(C)CCCOc1ccc(-c2ccc3ncc4c(c3c2)n(C2CCOCC2)c(=O)n4C)cn1 [AZD0156] (first compound max 10 µM, 7x7, partner max 1 µM) | -0.0259 | 0.0424 | -0.0058 | 0.0291 | -0.008 | 0.575 | 0.133 | 0.332 | 0.398 | 0.661 | 0.24 | 0.484 | 0.3 | 0.517 | 0.164 | 0.256 | 0.245 | 0.264 | 0.275 | 0.36 |
| COc1cc2ncnc(Nc3ccc(F)c(Cl)c3)c2cc1OCCCN1CCOCC1 [Gefitinib] + CC(C)n1c(=O)n(C)c2cnc3cc(F)c(-c4ccc(OCCCN5CCCCC5)nc4)cc3c21 [AZD1390] (first compound max 10 µM, 7x7, partner max 0.3 µM) | -0.0901 | -0.0785 | 0 | -0.0534 | -0.0588 | 0.307 | 0.176 | 0.198 | 0.488 | 0.368 | 0.0966 | 0.754 | 0.178 | 0.349 | 0.196 | 0.413 | 0.0247 | 0.199 | 0.169 | 0.316 |
| N#Cc1cnc(Nc2cc(NC[C@H]3CNCCO3)c(C(F)(F)F)cn2)cn1 [SRA737] + CCc1c2c(nc3ccc(O)cc13)-c1cc3c(c(=O)n1C2)COC(=O)[C@]3(O)CC [SN-38] (first compound max 10 µM, 7x7, partner max 0.3 µM) | -0.13 | 0.0291 | -0.0125 | -0.0337 | 0.0144 | 0.974 | 0.953 | 0.541 | 1 | 0.836 | 0.525 | 0.996 | 0.821 | 0.835 | 0.635 | 0.8 | 0.763 | 0.749 | 0.548 | 0.829 |
